Experimental data published in patent US4555519A, “Thromboxane synthetase enzyme inhibiting N-[(1H-imidazol-1-yl) and (1H-1,2,4-triazol-1-yl)alkyl]pyridinecarboxamides” (American Cyanamid Company, priority 1984, dated 1985).

biological target: T1, thromboxane synthetase enzyme (Rattus norvegicus, UniProt P49430); test: inhibition of thromboxane (TXA2) formation, TXB2 determined by direct radioimmunoassay in washed rat platelets; format: cell-based, Okamoto-Aoki spontaneously hypertensive rats (SHR); conditions: Dose 10^-4 M; SHR platelets, 10 minutes at 37° C.
T1 construct: endogenous in cells; host or cells: washed platelets from arterial blood of Okamoto-Aoki spontaneously hypertensive rats (Taconic Farms, Germantown, NY)
T1 sequence (P49430 1-533): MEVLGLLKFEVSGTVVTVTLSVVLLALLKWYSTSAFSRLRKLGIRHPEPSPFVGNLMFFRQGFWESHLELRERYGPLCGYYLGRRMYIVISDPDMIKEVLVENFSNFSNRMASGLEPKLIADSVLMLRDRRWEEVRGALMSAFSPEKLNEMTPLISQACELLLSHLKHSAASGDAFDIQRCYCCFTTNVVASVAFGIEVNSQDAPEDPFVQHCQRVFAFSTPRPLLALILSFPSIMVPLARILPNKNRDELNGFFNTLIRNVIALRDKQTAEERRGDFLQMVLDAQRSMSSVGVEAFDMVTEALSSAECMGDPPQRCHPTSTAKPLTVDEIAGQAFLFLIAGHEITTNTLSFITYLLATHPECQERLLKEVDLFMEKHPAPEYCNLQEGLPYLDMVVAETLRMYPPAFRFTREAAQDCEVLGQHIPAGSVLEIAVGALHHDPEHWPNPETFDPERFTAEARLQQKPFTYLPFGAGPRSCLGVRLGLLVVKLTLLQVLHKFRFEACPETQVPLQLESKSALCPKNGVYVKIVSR
Method: The inhibition of thromboxane (TXA2) formation was studied by determining the concentration of thromboxane B2 (TXB2), the stable hydrolysis product of TXA2.
Under urethan anesthesia, […] of arterial blood was collected in one ml of 3.2% sodium citrate in a polystyrene tube from Okamoto-Aoki spontaneously hypertensive rats (SHR) (Taconic Farms, Germantown, NY) between 19 and 24 weeks in age. The blood was diluted with 3 ml cold saline and centrifuged at room temperature for 15 minutes at 460 xg. The platelet rich plasma (PRP) was separated. The platelets were isolated by centrifuging the PRP for 10 minutes at 1060 xg and were washed in 4 ml cold oxygenated Krebs phosphate buffer, pH 7.4. The chilled platelets recovered from centrifuging at 800 xg for 10 minutes were resuspended in oxygenated Krebs phosphate buffer and diluted to contain 4.5-6.0×10^4 platelets/μl. Assay samples, prepared on ice, contained 200 μl platelet suspension, 50 μl saline, and 50 μl vehicle or drug under study (OKY-1581, UK-37248-01, 1-benzylimidazole, or indomethacin). The samples were incubated for 10 minutes at 37° C. in a metabolic shaker. The reaction was terminated by immersing the tubes in an ice bath and adding 50 μl of 0.5M citric acid. The samples were centrifuged for 10 minutes in a refrigerated centrifuge and the supernatants thus obtained were decanted and stored at -20° C. The TXB2 content for each sample was determined by a direct radioimmunoassay (RIA) utilizing a TXB2 specific RIA kit purchased from New England Nuclear, Boston, Mass. and expressed as pg TXB2 formed minute^-1 sample^-1, from which the percent inhibition of TXB2 formation was calculated.

| Structure (SMILES) | inhibition at 100 µM [%] |
| --- | --- |
| Cc1cn(CCCNC(=O)c2cccnc2)cn1 [N--[3-(4-Methyl-1H--imidazol-1-yl)propyl]-3-pyridinecarboxamide] | 50 |
| O=C(NCCCn1ccnc1)c1ccc(Cl)nc1 [6-Chloro-N--[3-(1H--imidazol-1-yl)propyl]-3-pyridinecarboxamide] | 88 |
| O=C(NCCCn1ccnc1-c1ccccc1)c1ccccn1 [N-[3-(2-Phenyl-1H-imidazol-1-yl)propyl]-2-pyridinecarboxamide] | 30 |
| Cc1cn(CCCNC(=O)c2cccnc2Cl)cn1 [2-Chloro-N--[3-(4-methyl-1H--imidazol-1-yl)propyl]-3-pyridinecarboxamide] | 50 |
| Cc1nccn1CCCNC(=O)c1cccnc1Cl [2-Chloro-N-[3-(2-methyl-1H-imidazol-1-yl)propyl]-3-pyridinecarboxamide] | 38 |
| Cc1nccn1CCCNC(=O)c1ccc(Cl)nc1 [6-Chloro-N-[3-(2-methyl-1H-imidazol-1-yl)propyl]-3-pyridinecarboxamide] | 44 |
| O=C(NCCCn1ccnc1-c1ccccc1)c1ccc(Cl)nc1 [6-Chloro-N-[3-(2-phenyl-1H-imidazol-1-yl)propyl]-3-pyridinecarboxamide] | 56 |
| Cc1cn(CCCNC(=O)c2ccccn2)cn1 [N--[3-(4-Methyl-1H--imidazol-1-yl)propyl]-2-pyridinecarboxamide] | 84 |
| CC(CCNC(=O)c1ccc(Cl)nc1)n1ccnc1 (stereo not shown) [6-Chloro-N-[3-(1H-imidazol-1-yl)butyl]-3-pyridinecarboxamide] | 98 |
| O=C(NCCCn1cncn1)c1ccc(Cl)nc1 [6-Chloro-N-[3-(1H-1,2,4-triazol-1-yl)propyl]-3-pyridinecarboxamide] | 67 |
| O=C(NCCCCn1ccnc1)c1ccc(Cl)nc1 [6-Chloro-N--[4-(1H--imidazol-1-yl)butyl]-3-pyridinecarboxamide] | 94 |
| O=C(NCCCCn1ccnc1)c1cccnc1Cl [2-Chloro-N--[4-(1H--imidazol-1-yl)butyl]-3-pyridinecarboxamide] | 90 |
| O=C(NCCCCn1ccnc1)c1ccccn1.O=C(O)/C=C/C(=O)O [N-[4-(1H-Imidazol-1-yl)butyl]-2-pyridinecarboxamide, fumarate] | 82 |
| Cc1cn(CCCNC(=O)c2ccc(Cl)nc2)cn1 [6-Chloro-N-[3-(4-methyl-1H-imidazol-1-yl)propyl]-3-pyridinecarboxamide] | 86 |
| O=C(NCCCn1ccnc1)c1ccccn1 [N-[3-(1H-Imidazol-1-yl)propyl]-2-pyridinecarboxamide] | 59 |
| CC(CNC(=O)c1ccc(Cl)nc1)Cn1ccnc1 (stereo not shown) [6-Chloro-N-[3-(1H-imidazol-1-yl)-2-methylpropyl]-3-pyridinecarboxamide] | 98 |
| O=C(NCCCn1ccnc1)c1cccnc1Cl [2-Chloro-N--[3-(1H--imidazol-1-yl)propyl]-3-pyridinecarboxamide] | 58 |
| O=C(NCCCn1ccnc1)c1cccnc1 [N--[3-(1H--Imidazol-1-yl)propyl]-3-pyridinecarboxamide] | 83 |

test system: not listed separately; test: hypotensive activity in spontaneously hypertensive rats, mean arterial blood pressure (method of Chan and Poorvin); format: in vivo; conditions: gavage, 100 mg/kg or less, two doses 24 hours apart; measured 28 hours after initial dose; average MABP of rats used 160±1.5 mm Hg; (no. of rats) in parentheses
Method: The novel compounds of the present invention also are active antihypertensive agents and were tested for hypotensive activity by the method of P. S. Chan and D. Poorvin, Clinical and Experimental Hypertension, 1 (6), 817-830 (1979). Male, 16 week old, spontaneously hypertensive rats of the Okamoto strain, from Taconic Farms, Germantown, N.Y., having an average mean arterial blood pressure of 160±1.5 mm of mercury are used in the test. One to three rats are used per test compound. A rat is dosed by gavage with a test compound, suspended in 2% pre-boiled starch at a concentration of 50 mg/ml, at a dose of 100 mg/kg of body weight or less with 0.9% sodium chloride loading at a dose of 25 ml/kg of body weight. A second identical dose of the test compound without sodium chloride loading is given 24 hours later. At 28 hours after the initial dose the mean arterial blood pressure is measured by the method of Chan and Poorvin vide supra. The procedure is repeated in a second and third rat when necessary.

| Structure (SMILES) | MABP in mm Hg [mm Hg] |
| --- | --- |
| Cc1cn(CCCNC(=O)c2cccnc2)cn1 [N--[3-(4-Methyl-1H--imidazol-1-yl)propyl]-3-pyridinecarboxamide] | 123 |
| O=C(NCCCn1ccnc1)c1ccc(Cl)nc1 [6-Chloro-N--[3-(1H--imidazol-1-yl)propyl]-3-pyridinecarboxamide] | 132 |
| Cc1cn(CCCNC(=O)c2ccccn2)cn1 [N--[3-(4-Methyl-1H--imidazol-1-yl)propyl]-2-pyridinecarboxamide] | 140 |
| CC(CCNC(=O)c1ccc(Cl)nc1)n1ccnc1 (stereo not shown) [6-Chloro-N-[3-(1H-imidazol-1-yl)butyl]-3-pyridinecarboxamide] | 111 |
| O=C(NCCCn1cncn1)c1ccc(Cl)nc1 [6-Chloro-N-[3-(1H-1,2,4-triazol-1-yl)propyl]-3-pyridinecarboxamide] | 140 |
| O=C(NCCCCn1ccnc1)c1ccccn1.O=C(O)/C=C/C(=O)O [N-[4-(1H-Imidazol-1-yl)butyl]-2-pyridinecarboxamide, fumarate] | 116 |
| Cc1cn(CCCNC(=O)c2ccc(Cl)nc2)cn1 [6-Chloro-N-[3-(4-methyl-1H-imidazol-1-yl)propyl]-3-pyridinecarboxamide] | 139 |
| O=C(NCCCn1ccnc1)c1ccccn1 [N-[3-(1H-Imidazol-1-yl)propyl]-2-pyridinecarboxamide] | 127 |
| CC(CNC(=O)c1ccc(Cl)nc1)Cn1ccnc1 (stereo not shown) [6-Chloro-N-[3-(1H-imidazol-1-yl)-2-methylpropyl]-3-pyridinecarboxamide] | 129 |
| O=C(NCCCn1ccnc1)c1cccnc1 [N--[3-(1H--Imidazol-1-yl)propyl]-3-pyridinecarboxamide] | 138 |
